The values below come from publication PMC8589421, “Impact of Type II LRRK2 inhibitors on signaling and mitophagy” (Biochemical Journal, 2021).

Assay [1] deals with Rab10 pThr73, LRRK2 [R1441C]. In words: Rab10 Thr73 phospho-immunoblot in LRRK2[R1441C] knock-in MEFs. The format is cell-based, mouse. The note with it: LRRK2[R1441C] knock-in MEFs, 2 h, read-out: LRRK2 [R1441C] Rab10 pThr73 IC50. How it is done:
(§1) Wild-type and homozygous LRRK2 [R1441C] (Jax, stock number: 009346), LRRK2[G2019S] Taconic, (model 13940) and LRRK2 [A2016T] (Jax, stock number: 021828)[7] knock-in MEF cells were isolated from littermate-matched mouse embryos on a C57BL/6J background at day E12.5 as described previously. MEFs were grown in Dulbecco's modified Eagle medium (DMEM GIBCO, #11960-085) containing 10% (by vol) fetal bovine serum (FBS), 2 mM L-glutamine, 100 U/ml penicillin, and […] streptomycin supplemented with non-essential amino acids and 1 mM sodium pyruvate. Human embryonic kidney 293 (HEK293) (#ATCC CRL-1573) and HeLa (#ATCC CCL-2) cells were purchased from American Tissue Culture Collection (ATCC) and cultured in DMEM containing 10% (by vol) FBS, 2 mM L-glutamine, 100 U/ml penicillin, and […] streptomycin. All cells were grown at 37°C, 5% (by vol) CO2 in a humidified atmosphere and regularly tested for mycoplasma contamination.
(§2) Inhibitors were dissolved in dimethyl sulfoxide (DMSO) (Sigma, #D2650). The inhibitors were diluted 1000× into cell medium. The equivalent volume of DMSO was added to the minus inhibitor controls. Experiments were performed in six-well plates, 10 cm dishes or 15 cm dishes depending on the amount of cell extract required.
(§3) Cells were lysed in an ice-cold lysis buffer containing 50 mM Tris–HCl, pH 7.4, 1% (by vol) Triton X-100, 10% (by vol) glycerol, 150 mM NaCl, 1 mM sodium orthovanadate, 50 mM NaF, 10 mM 2-glycerophosphate, 5 mM sodium pyrophosphate, 1 µg/ml microcystin-LR, and cOmplete EDTA-free protease inhibitor cocktail (Roche, #11836170001). Lysates were incubated on ice for 30 min and clarified by centrifugation at 20 800×g at 4°C for 20 min. Supernatants were quantified by Bradford assay (Bio-Rad Protein Assay Dye Reagent Concentrate #5000006) and samples prepared in 1× lithium dodecyl sulfate sample buffer final concentration (NuPage LDS Sample buffer 4× Invitrogen, #NP0008). When not deployed immediately, lysates were snap-frozen in liquid nitrogen and stored at −80°C until use. […]
(A western blot detects proteins with antibodies after separation by electrophoresis.)

Assay [2] has as its system Dundee panel of 140 protein kinases. Put plainly: Kinase profiling. The format is biochemical. From the text:
[…] Results for each kinase are presented as the mean kinase activity ±S.D. for an assay undertaken in duplicate relative to a control kinase assay in which the inhibitor was omitted. Abbreviations and assay conditions used for each kinase are available (http://www.kinase-screen.mrc.ac.uk/services/premier-screen).

Assay [3] concerns phosphorylation of Rab12 (Ser105). Put plainly: Rab12 phospho-immunoblot in wild-type MEFs. The format is cell-based, mouse. The procedure: as §1, §2
Cells were lysed in an ice-cold lysis buffer containing 50 mM Tris–HCl, pH 7.4, 1% (by vol) Triton X-100, 10% (by vol) glycerol, 150 mM NaCl, 1 mM sodium orthovanadate, 50 mM NaF, 10 mM 2-glycerophosphate, 5 mM sodium pyrophosphate, 1 µg/ml microcystin-LR, and cOmplete EDTA-free protease inhibitor cocktail (Roche, #11836170001). Lysates were incubated on ice for 30 min and clarified by centrifugation at 20 800×g at 4°C for 20 min. Supernatants were quantified by Bradford assay (Bio-Rad Protein Assay Dye Reagent Concentrate #5000006) and samples prepared in 1× lithium dodecyl sulfate sample buffer final concentration (NuPage LDS Sample buffer 4× Invitrogen, #NP0008). When not deployed immediately, lysates were snap-frozen in liquid nitrogen and stored at −80°C until use.
Cell extracts were mixed with a quarter of a volume of NuPage LDS Sample buffer 4× Invitrogen and heated at 95°C for 5 min. […] At the end of electrophoresis, proteins were electrophoretically transferred onto the nitrocellulose membrane (GE Healthcare, Amersham Protran Supported 0.45 µm NC) at 100 V for 90 min on ice in the transfer buffer (48 mM Tris–HCl and 39 mM glycine supplemented with 20% methanol). Transferred membrane was blocked with 5% (w/v) skim milk powder dissolved in TBS-T [20 mM Tris–HCl, pH 7.5, 150 mM NaCl and 0.1% (v/v) Tween 20] at room temperature for 1 h. […]

The test system of assay [4] is Rab10 phosphorylation, LRRK2[A2016T]. In words: Rab10 Thr73 phospho-immunoblot in inhibitor resistant LRRK2[A2016T] knock-in MEFs. The format is cell-based, mouse. As to conditions: 2 h, up to 3 µM. The procedure: as §1, §2, §3
Assay [5] relates to basal mitophagy, LRRK2 knock-out MEFs. Put plainly: mito-QC basal mitophagy in LRRK2 knock-out primary MEFs. The format is cell-based, mouse. The note with it: 24 h. The procedure:
To assess mitophagy, wild type, G2019S knock in, and LRRK2 knock out primary mouse embryonic fibroblasts (MEFs) were derived, from time-mated pregnant females at E12.5 as previously described. Briefly, cells were plated on glass coverslips and incubated with DMEM (Gibco, 11960-044) supplemented with 10% FBS, 2 mM L-Glutamine (Gibco, 2503-081), 1% non-essential amino acids (Gibco, 11140-035), 1% Antibiotics (Penicillin/Streptomycin 100 U/ml penicillin and 100 µg/ml streptomycin; Gibco), and 150 µM β-Mercaptoethanol (Gibco, 21985-023) at 37°C under a humidified 5% CO2 atmosphere. […] GSK3357679A 100 nM (Ding et al., in prep) was used as a positive control. At the end of the treatment, MEFs were briefly washed twice in DPBS (Gibco, 14190-094), and fixed in 3.7% Paraformaldehyde pH 7.00 (Sigma, P6148), 200 mM HEPES, for 20 min. Cells were then washed two times with DMEM, 10 mM HEPES, and then incubated for 10 min with DMEM, 10 mM HEPES. […] Images were acquired using a Nikon Eclipse Ti-S fluorescence microscope with a 63× objective. Images were analyzed using the mito-QC counter as previously described. Experiments were performed in 3–4 independent experiments and data was analyzed with a one-way ANOVA followed by a Dunnett's multiple comparison test using the GraphPad Prism software (version 8.4.3 (686)).

Where two headings read alike, the source gives them in different places.

A word on the IC50: it is the concentration that gives 50% inhibition. Turning to `Cc1ccc(C(=O)Nc2ccc(CN3CCN(C)CC3)c(C(F)(F)F)c2)cc1C#Cc1cnc2[nH]ncc2c1` [GZD-824], the IC50 in assay [1] was 262 nM; in assay [1] (Mus musculus), 262 nM; in assay [3] (Mus musculus, 2 h, Figure 2A, read-out: IC50 inhibition of Rab12 phosphorylation) it was about 300 nM. The “number of the 140 kinases assayed suppressed by over 80%” value came to 22 in assay [2] (0.1 μM inhibitor) and 43 in assay [2] (1 μM inhibitor). Moreover, the “Rab12 phosphorylation level after treatment” value in assay [3] (1 μM, 2 h) is reported as “almost background levels”. In assay [3] (1 μM, 24 h), the “Rab12 phosphorylation over 24 h time course” value is given as “remained suppressed”. Moreover, the “time to 50% reduction of Rab12 phosphorylation” value in assay [3] (1 μM, Figure 2C) is about 10 min. Further, in assay [4], the “effect of A2016T mutation on inhibition of Rab10 phosphorylation” value is recorded as “markedly blocked”. Further, the “impact on basal mitophagy in LRRK2 knock-out cells” value in assay [5] was “neither GZD-824 or GSK3357679A impacted basal mitophagy”.
